Experimental data as given in patent publication US9586931B2 (Merck Sharp & Dohme Corp., priority 2012, dated 2017).

molecular target: T1, recombinant human GST-Syk (Homo sapiens, UniProt P43405); assay: Homogeneous Time-Resolved Fluorescence (HTRF) assay for the recombinant human Syk enzyme; assay type: biochemical; settings: recombinant human GST-Syk 5 pM, ATP 25 μM, 10-dose titration 10 μM to 0.508 nM; read-out: rhSYK Activity IC50
T1 construct: purchased Carna Biosciences 08-176
Summary of the method: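 Detection used time-resolved fluorescence 30 min after adding a quench mix (40 mM EDTA, 15 mM Tris pH 7.5, 0.01% Tween 20) containing 2 nM Europium anti-pTyr antibody and 70 nM streptavidin-APC. This followed 45 min of room-temperature peptide phosphorylation by recombinant GST-tagged human Syk.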

Structure (SMILES) | IC50 [nM]
Cc1cc(Nc2cc(C(F)(F)F)ccn2)nc(-c2cn(C[C@H](O)CC(N)=O)nn2)c1 [Example 12.1] | 14.8
Cc1cc(Nc2cc(C(F)(F)F)ccn2)nc(-c2cn(C(CO)c3ccc(F)cc3)nn2)c1 (stereo not drawn) [Example 13.7, 2-(4-fluorophenyl)-2-[4-(4-methyl-6-{[4-(trifluoromethyl)pyridin-2-yl]amino}pyridin-2-yl)-1H-1,2,3-triazol-1-yl]ethanol] | 3.7
CCC(CO)n1cc(-c2cc(C)cc(Nc3cc(C(F)(F)F)ccn3)n2)nn1 (stereo not drawn) [Example 13.9, 2-[4-(4-methyl-6-{[4-(trifluoromethyl)pyridin-2-yl]amino}pyridin-2-yl)-1H-1,2,3-triazol-1-yl]butan-1-ol] | 2.9
Cc1cc(Nc2nccc(C(F)(F)F)n2)cc(-n2cc(C3(O)CCC4(CC3)OCCO4)nn2)c1 [Example 15, 8-[1-(3-Methyl-5-{[4-(trifluoromethyl)pyrimidin-2-yl]amino}phenyl)-1H-1,2,3-triazol-4-yl]-1,4-dioxaspiro[4.5]decan-8-ol] | 94.7
Cc1cc(Nc2nccc(C(F)(F)F)n2)cc(-n2cc(C3(O)CCC(C(=O)O)C(C)(C)C3)nn2)c1 (stereo not drawn) [Example 15.2] | 14.5
Cc1cc(Nc2nccc(C(F)(F)F)n2)cc(-n2cc([C@]3(O)CC[C@@H](C(=O)OC(C)(C)C)CC3)nn2)c1 [Example 15.6, tert-butyl cis-4-hydroxy-4-[1-(3-methyl-5-{[4-(trifluoromethyl)pyrimidin-2-yl]amino}phenyl)-1H-1,2,3-triazol-4-yl]cyclohexanecarboxylate] | 850
Cc1cc(Nc2nccc(C(F)(F)F)n2)cc(-n2cc([C@@]3(O)CC[C@H](C(=O)O)C(C)(C)C3)nn2)c1 [Example 15.9, (1S,4R)-4-hydroxy-2,2-dimethyl-4-[1-(3-methyl-5-{[4-(trifluoromethyl)pyrimidin-2-yl]amino}phenyl)-1H-1,2,3-triazol-4-yl]cyclohexanecarboxylic acid] | 8.1
Cc1cc(Nc2nccc(C(F)(F)F)n2)cc(-n2ccnn2)c1 [Example 15.11, N-[3-methyl-5-(1H-1,2,3-triazol-1-yl)phenyl]-4-(trifluoromethyl)pyrimidin-2-amine] | 102
Cc1cc(Nc2nccc(C(F)(F)F)n2)cc(-n2cc([Si](C)(C)C)nn2)c1 [Example 15.12, N-{3-methyl-5-[4-(trimethylsilyl)-1H-1,2,3-triazol-1-yl]phenyl}-4-(trifluoromethyl)pyrimidin-2-amine] | 284
Cc1cc(Nc2nccc(C(F)(F)F)n2)cc(-n2cc(C3(O)CCC(O)CC3)nn2)c1 (stereo not drawn) [Example 15.16, trans-1-[1-(3-methyl-5-{[4-(trifluoromethyl)pyrimidin-2-yl]amino}phenyl)-1H-1,2,3-triazol-4-yl]cyclohexane-1,4-diol] | 117
Cc1cc(Nc2nccc(C(F)(F)F)n2)cc(-n2cc([C@]3(O)CC[C@@H](O)CC3)nn2)c1 [Example 15.17, cis-1-[1-(3-methyl-5-{[4-(trifluoromethyl)pyrimidin-2-yl]amino}phenyl)-1H-1,2,3-triazol-4-yl]cyclohexane-1,4-diol] | 30
Cc1cc(Nc2cc(C(F)(F)F)ccn2)nc(-c2nnc(C)n2C)c1 [Example 16.1, 6-(4,5-dimethyl-4H-1,2,4-triazol-3-yl)-4-methyl-N-[4-(trifluoromethyl)pyridin-2-yl]pyridin-2-amine] | 650
Cc1cc(Nc2cc(C(F)(F)F)ccn2)nc(-c2nnc[nH]2)c1 [Example 16.2, 4-methyl-6-(4H-1,2,4-triazol-3-yl)-N-[4-(trifluoromethyl)pyridin-2-yl]pyridin-2-amine] | 328
Cc1cc(Nc2nccc(C(F)(F)F)n2)cc(-c2nnc(CCC(=O)O)[nH]2)c1 [Example 20.1, 3-(5-(3-Methyl-5-((4-(trifluoromethyl)pyrimidin-2-yl)amino)phenyl)-4H-1,2,4-triazol-3-yl)propanoic acid] | 7.7
Cc1cc(Nc2cc(C)c(Cl)cn2)nc(-c2cn(CC(C)(O)C(C)(C)O)nn2)c1 (stereo not drawn) [Example 21.10, 1-(4-{6-[(5-chloro-4-methylpyridin-2-yl)amino]-4-methylpyridin-2-yl}-1H-1,2,3-triazol-1-yl)-2,3-dimethylbutane-2,3-diol] | 20.1
COc1ccnc(Nc2cc(C)cc(-c3cn(CC(C)(O)C(C)(C)O)nn3)c2)n1 (stereo not drawn) [Example 21.12, 1-(4-{3-[(4-methoxypyrimidin-2-yl)amino]-5-methylphenyl}-1H-1,2,3-triazol-1-yl)-2,3-dimethylbutane-2,3-diol] | 28.3

Continued, values first:

IC50 [nM] | Structure (SMILES)
15 | Cc1cc(Nc2cc(C(F)(F)F)ccn2)nc(-c2cn(C3CN(C(=O)CCC(N)=O)CC3O)nn2)c1 (stereo not drawn) [Example 13.5, 4-{-3-hydroxy-4-[4-(4-methyl-6-{[4-(trifluoromethyl)pyridin-2-yl]amino}pyridin-2-yl)-1H-1,2,3-triazol-1-yl]pyrrolidin-1-yl}-4-oxobutanamide]
3.2 | Cc1cc(Nc2cc(C(F)(F)F)ccn2)nc(-c2cn(C3(CO)CCC3)nn2)c1 [Example 13.6, {1-[4-(4-methyl-6-{[4-(trifluoromethyl)pyridin-2-yl]amino}pyridin-2-yl)-1H-1,2,3-triazol-1-yl]cyclobutyl}methanol]
7.1 | Cc1cc(Nc2cc(C(F)(F)F)ccn2)nc(-c2cn(C(CO)c3ccccc3)nn2)c1 (stereo not drawn) [Example 13.8, 2-[4-(4-methyl-6-{[4-(trifluoromethyl)pyridin-2-yl]amino}pyridin-2-yl)-1H-1,2,3-triazol-1-yl]-2-phenylethanol]
44.9 | Cc1cc(Nc2cc(C(F)(F)F)ccn2)nc(-c2cn(CC(O)C(=O)O)nn2)c1 (stereo not drawn) [Example 14, 2-Hydroxy-3-(4-(4-methyl-6-((4-(trifluoromethyl)pyridin-2-yl)amino)pyridin-2-yl)-1H-1,2,3-triazol-1-yl)propanoic acid]
6.5 | Cc1cc(Nc2nccc(C(F)(F)F)n2)cc(-n2cc(C3(O)CCC(C(=O)O)C(C)(C)C3)nn2)c1 (stereo not drawn) [Example 15.1, 4-hydroxy-2,2-dimethyl-4-[1-(3-methyl-5-{[4-(trifluoromethyl)pyrimidin-2-yl]amino}phenyl)-1H-1,2,3-triazol-4-yl]cyclohexanecarboxylic acid]
232 | Cc1cc(Nc2nccc(C(F)(F)F)n2)cc(-n2cc([C@]3(O)CC[C@H](C(=O)O)CC3)nn2)c1 [Example 15.3, trans-4-hydroxy-4-[1-(3-methyl-5-{[4-(trifluoromethyl)pyrimidin-2-yl]amino}phenyl)-1H-1,2,3-triazol-4-yl]cyclohexanecarboxylic acid]
12.5 | Cc1cc(Nc2nccc(C(F)(F)F)n2)cc(-n2cc([C@]3(O)CC[C@@H](C(=O)O)CC3)nn2)c1 [Example 15.4, cis-4-hydroxy-4-[1-(3-methyl-5-{[4-(trifluoromethyl)pyrimidin-2-yl]amino}phenyl)-1H-1,2,3-triazol-4-yl]cyclohexanecarboxylic acid]
2390 | Cc1cc(Nc2nccc(C(F)(F)F)n2)cc(-n2cc([C@]3(O)CC[C@H](C(=O)OC(C)(C)C)CC3)nn2)c1 [Example 15.5, tert-butyl trans-4-hydroxy-4-[1-(3-methyl-5-{[4-(trifluoromethyl)pyrimidin-2-yl]amino}phenyl)-1H-1,2,3-triazol-4-yl]cyclohexanecarboxylate]
53.1 | Cc1cc(Nc2nccc(C(F)(F)F)n2)cc(-n2cc(CC(O)CO)nn2)c1 (stereo not drawn) [Example 15.7, 3-[1-(3-methyl-5-{[4-(trifluoromethyl)pyrimidin-2-yl]amino}phenyl)-1H-1,2,3-triazol-4-yl]propane-1,2-diol]
179 | COC(=O)[C@H]1CC[C@](O)(c2cn(-c3cc(C)cc(Nc4nccc(C(F)(F)F)n4)c3)nn2)CC1(C)C [Example 15.10, methyl (1S,4R)-4-hydroxy-2,2-dimethyl-4-[1-(3-methyl-5-{[4-(trifluoromethyl)pyrimidin-2-yl]amino}phenyl)-1H-1,2,3-triazol-4-yl]cyclohexanecarboxylate]
88 | Cc1cc(Nc2nccc(C(F)(F)F)n2)cc(-n2cc(CC(C)(C)C(=O)O)nn2)c1 [Example 15.13, 2,2-dimethyl-3-[1-(3-methyl-5-{[4-(trifluoromethyl)pyrimidin-2-yl]amino}phenyl)-1H-1,2,3-triazol-4-yl]propanoic acid]
79.6 | Cc1cc(Nc2nccc(C(F)(F)F)n2)cc(-n2cc(CCC(=O)O)nn2)c1 [Example 15.14, 3-[1-(3-methyl-5-{[4-(trifluoromethyl)pyrimidin-2-yl]amino}phenyl)-1H-1,2,3-triazol-4-yl]propanoic acid]
255 | CCOC(=O)C(C)(C)Cc1cn(-c2cc(C)cc(Nc3nccc(C(F)(F)F)n3)c2)nn1 [Example 15.15, ethyl 2,2-dimethyl-3-[1-(3-methyl-5-{[4-(trifluoromethyl)pyrimidin-2-yl]amino}phenyl)-1H-1,2,3-triazol-4-yl]propanoate]
389 | Cc1cc(Nc2cc(C(F)(F)F)ccn2)nc(-c2nncn2C)c1 [Example 16.3, 4-methyl-6-(4-methyl-4H-1,2,4-triazol-3-yl)-N-[4-(trifluoromethyl)pyridin-2-yl]pyridin-2-amine]
2.2 | Cc1cc(Nc2cc(C(F)(F)F)ccn2)nc(-c2cn(C(C)CO)nn2)c1 (stereo not drawn) [Example 18.1, 2-[4-(4-Methyl-6-{[4-(trifluoromethyl)pyridin-2-yl]amino}pyridin-2-yl)-1H-1,2,3-triazol-1-yl]propan-1-ol]
13.5 | Cc1cc(Nc2cc(C(F)F)ccn2)nc(-c2cn(CC(C)(O)C(C)(C)O)nn2)c1 (stereo not drawn) [Example 21.9, 1-[4-(6-{[4-(difluoromethyl)pyridin-2-yl]amino}-4-methylpyridin-2-yl)-1H-1,2,3-triazol-1-yl]-2,3-dimethylbutane-2,3-diol]
182 | Cc1cc(Nc2ncc(Cl)c(C)n2)cc(-c2cn(CC(C)(O)C(C)(C)O)nn2)c1 (stereo not drawn) [Example 21.11, 1-(4-{3-[(5-chloro-4-methylpyrimidin-2-yl)amino]-5-methylphenyl}-1H-1,2,3-triazol-1-yl)-2,3-dimethylbutane-2,3-diol]
